Broadly, the EC50 is the concentration giving half of the maximal effect.

The structures appear in SMILES notation. Where only a bound is given, the exact number is not on record here.

Sequence of hSTING(R232) (Q86WV6 whole entry H232R): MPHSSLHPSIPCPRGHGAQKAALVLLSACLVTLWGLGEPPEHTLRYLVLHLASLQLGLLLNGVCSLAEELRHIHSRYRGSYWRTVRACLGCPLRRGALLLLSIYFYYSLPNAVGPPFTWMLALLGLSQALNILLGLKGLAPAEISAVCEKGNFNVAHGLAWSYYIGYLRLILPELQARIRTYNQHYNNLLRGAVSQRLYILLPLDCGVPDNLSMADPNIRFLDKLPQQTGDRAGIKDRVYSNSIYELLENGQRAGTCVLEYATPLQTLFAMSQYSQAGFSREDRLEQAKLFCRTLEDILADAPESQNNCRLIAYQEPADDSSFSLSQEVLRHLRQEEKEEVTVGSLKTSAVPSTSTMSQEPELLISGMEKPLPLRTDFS

This experiment concerns the target hSTING(R232) (Homo sapiens, UniProt Q86WV6, H232R). The experiment is described as follows: Luciferase reporter assay in HEK293T-hSTING-Luciferase cells, R232 (wild type) human STING. The experiment is classed as cell-based. The following applies: 20 hr stimulation, read-out: R232 human activity (EC50 range). An excerpt:
Stable Cell Line Generation • a) Stable STING expressing cells—Stable HEK293T STING-expressing cell lines were generated using plasmids purchased from Invivogen, CA, USA, that contain STING cDNA cloned into the pUNO-1 vector under hEF1-HTLV promoter and containing the Blasticidin selection cassette. The plasmids hSTING(R232), hSTING(H232), hSTING(HAQ) were directly procured from Invivogen while hSTING (AQ) and hSTING (Q) were derived from hSTING(HAQ) and hSTING (R232) plasmids respectively by using a PCR based site directed mutagenesis method. These vectors were individually transfected into HEK293T cells using Lipofectamine (Invitrogen) and transfected cells were selected under Blasticidin selection. These transfected cells were further subjected to clonal selection using the limiting dilution method to obtain clonally pure populations of HEK cells transfected with each of the above mentioned human STING variants. Only those clones were selected in which ligand independent activation of STING was minimal. • b) Stable Luciferase reporter gene expressing cells—Stable HEK293T Luciferase reporter gene expressing cell lines were generated using pCDNA4 plasmids under an IRF-inducible promoter. This promoter is comprised of five tandem interferon-stimulated response elements (ISRE) fused to an ISG54 minimal promoter. This vector was transfected into HEK293T cells using Lipofectamine (Invitrogen) and transfected cells were selected under Zeocin selection. These transfected cells were further subjected to clonal selection using the limiting dilution method to obtain clonally pure populations of HEK cells transfected the Luciferase reporter construct. Only those clones were selected in which ligand independent induction of luciferase was minimal.
5×10^5 clonally selected HEK293T-hSTING-Luciferase cells were seeded in 384-well plates in growth medium and stimulated with novel compounds. After 20 hr of stimulation supernatant were removed and secretary reporter gene activity were measured using the Quanti-Luc detection system (Invivogen) on a Spectramax i3X luminometer.
In the tables below, EC50 value ranges for exemplary compounds are given.
All compounds were first tested in a primary screen to obtain a ‘fold-induction’ over baseline levels of protein activity.
For orientation: A reporter such as luciferase makes a cellular process visible.
For the molecule `C[C@H]1c2ccc(C(=O)NCc3c(F)cc(F)cc3F)cc2N(Cc2c(F)cccc2NCCCO)C(=O)N1C` [Example 278, (S)-1-(2-fluoro-6-((3-hydroxypropyl)amino)benzyl)-3,4-dimethyl-2-oxo-N-(2,4,6-trifluorobenzyl)-1,2,3,4-tetrahydroquinazoline-7-carboxamide], the concentration for a half-maximal effect (EC50) was under 1 µM. Turning to `COc1cccc(CN2C(=O)N(C)[C@@H](C)c3ccc(C(=O)NCc4c(F)cc(F)cc4F)cc32)c1F` [Example 279, (S)-1-(2-fluoro-3-methoxybenzyl)-3,4-dimethyl-2-oxo-N-(2,4,6-trifluorobenzyl)-1,2,3,4-tetrahydroquinazoline-7-carboxamide], the concentration for a half-maximal effect (EC50) was under 1 µM. As for `CN1Cc2ccc(C(=O)NCc3c(F)cc(F)cc3F)cc2N(Cc2ccc(F)cc2)C1=O` [Example 6, 1-(4-fluorobenzyl)-3-methyl-2-oxo-N-(2,4,6-trifluorobenzyl)-1,2,3,4-tetrahydroquinazoline-7-carboxamide], the concentration for a half-maximal effect (EC50) is under 1 µM. With `C[C@H]1c2ccc(C(=O)NCc3c(F)cc(F)cc3F)cc2N(Cc2c(F)ccc(C(N)=O)c2Cl)C(=O)N1C` [Example 186, (S)-1-(3-carbamoyl-2-chloro-6-fluorobenzyl)-3,4-dimethyl-2-oxo-N-(2,4,6-trifluorobenzyl)-1,2,3,4-tetrahydroquinazoline-7-carboxamide], the concentration for a half-maximal effect (EC50) is under 1 µM. Turning to `Cc1cc(CN2C(=O)N(C)C(C)c3ccc(C(=O)NCc4c(F)cc(F)cc4F)cc32)no1` (stereo not drawn) [Example 200, 3,4-dimethyl-1-((5-methylisoxazol-3-yl)methyl)-2-oxo-N-(2,4,6-trifluorobenzyl)-1,2,3,4-tetrahydroquinazoline-7-carboxamide], the 50% effective concentration (EC50) is over 10 µM. For `CN1Cc2ccc(C(=O)NCc3c(F)cc(F)cc3F)cc2N(Cc2cc(F)cc(F)c2)S1(=O)=O` [Example 70, 1-(3,5-difluorobenzyl)-3-methyl-N-(2,4,6-trifluorobenzyl)-3,4-dihydro-1H-benzo[c][1,2,6]thiadiazine-7-carboxamide 2,2-dioxide], the concentration for a half-maximal effect (EC50) lay within 1 to 10 µM. Under `COc1cc(F)c(CNC(=O)c2ccc3c(c2)N(Cc2c(F)cccc2Cl)C(=O)N(C)C3)c(F)c1` [Example 60, 1-(2-chloro-6-fluorobenzyl)-N-(2,6-difluoro-4-methoxybenzyl)-3-methyl-2-oxo-1,2,3,4-tetrahydroquinazoline-7-carboxamide] stands 1 to 10 µM; under `COc1cc(F)ccc1CNC(=O)c1ccc2c(c1)N(Cc1c(F)cccc1Cl)C(=O)N(C)C2` [Example 61, 1-(2-chloro-6-fluorobenzyl)-N-(4-flnoro-2-methoxybenzyl)-3-methyl-2-oxo-1,2,3,4-tetrahydroquinazoline-7-carboxamide], over 10 µM; under `C[C@H]1c2ccc(C(=O)N(CCO)Cc3c(F)cc(F)cc3F)cc2N(Cc2c(F)cccc2Cl)C(=O)N1C` [Example 151, (S)-1-(2-Chloro-6-fluorobenzyl)-N-(2-hydroxyethyl)-3,4-dimethyl-2-oxo-N-(2,4,6-trifluorobenzyl)-1,2,3,4-tetrahydroquinazoline-7-carboxamide], over 10 µM. As to `O=C(NCc1c(F)cc(F)cc1F)c1ccc2c(c1)N(Cc1cc(F)cc(F)c1)C(=O)N(C1CC1)C2` [Example 3, 3-cyclopropyl-1-(3.5-difluorobenzyl)-2-oxo-N-(2,4,6-trifluorobenzyl)-1,2,3,4-tetrahydroquinazoline-7-carboxamide], the EC50 was over 10 µM.

For `C[C@@H]1c2ccc(C(=O)NCc3c(F)cc(F)cc3F)cc2N(Cc2c(O)cccc2F)C(=O)N1C` [Example 172, (R)-1-(2-fluoro-6-hydroxybenzyl)-3,4-dimethyl-2-oxo-N-(2,4,6-trifluorobenzyl)-1,2,3,4-tetrahydroquinazoline-7-carboxamide], the EC50 was 1 to 10 µM. With `CCN1Cc2ccc(C(=O)NCc3c(F)cc(F)cc3F)cc2N(Cc2cc(F)cc(F)c2)C1=O` [Example 7, 1-(3,5-difluorobenzyl)-3-ethyl-2-oxo-N-(2,4,6-trifluorobenzyl)-1,2,3,4-tetrahydroquinazoline-7-carboxamide], the 50% effective concentration (EC50) lay in the range of 1 to 10 µM.

(Values after patent US11571423B2, “Small molecule modulators of human sting” (Curadev Pharma Limited, priority 2017, dated 2023).)
